Measurements: patent US12180255B2, “Compositions and methods for derepressing RE1 silencing transcription factor target genes” (Alcamena Stem Cell Therapeutics, LLC, priority 2019, dated 2024)
Values joined by “and” are separate entries in the source; they are usually repeats but may differ in a detail not shown here. Identical values can stand only once. Where a SMILES comes first, the peptide text is derived from it. [ ]: non-standard residue; d: D form. Gly(Dodecyl) = CCCCCCCCCCCC[C@H](N)C(=O)O

Legend:
PPA1 = target: T1, PPA1 (Homo sapiens, UniProt Q15181); experiment: Off target phosphatase activity on phosphorylated REST peptide; type: biochemical; settings: 10000 nM RPP
T1 sequence (Q15181 2-289 limits assumed): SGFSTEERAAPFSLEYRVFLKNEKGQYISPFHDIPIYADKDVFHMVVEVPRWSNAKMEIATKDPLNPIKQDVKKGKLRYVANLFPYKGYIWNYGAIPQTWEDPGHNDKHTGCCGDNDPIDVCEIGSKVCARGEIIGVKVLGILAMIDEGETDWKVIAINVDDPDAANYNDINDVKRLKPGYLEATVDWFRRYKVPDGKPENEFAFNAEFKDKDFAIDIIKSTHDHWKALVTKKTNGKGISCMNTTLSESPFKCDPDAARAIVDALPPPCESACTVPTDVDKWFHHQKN

PPM1A = target: T2, PPM1A (Homo sapiens, UniProt P35813); experiment: as above; type: biochemical; settings: 10000 nM RPP
T2 sequence (P35813 1-382): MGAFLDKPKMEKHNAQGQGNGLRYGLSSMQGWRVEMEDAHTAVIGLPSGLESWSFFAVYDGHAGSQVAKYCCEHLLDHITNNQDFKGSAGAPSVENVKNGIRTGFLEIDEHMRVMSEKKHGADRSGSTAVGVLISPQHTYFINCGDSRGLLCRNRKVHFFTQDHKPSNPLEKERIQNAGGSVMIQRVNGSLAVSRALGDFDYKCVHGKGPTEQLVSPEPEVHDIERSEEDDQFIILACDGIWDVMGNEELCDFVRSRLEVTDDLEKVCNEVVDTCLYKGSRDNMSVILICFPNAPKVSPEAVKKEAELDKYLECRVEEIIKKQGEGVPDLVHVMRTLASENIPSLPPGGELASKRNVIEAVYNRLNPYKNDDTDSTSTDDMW

PP3CA = PP3CA (Homo sapiens, UniProt Q08209); experiment: as above; type: biochemical; settings: 10000 nM RPP
PPP1CA = PPP1CA (Homo sapiens, UniProt P62136); experiment: as above; type: biochemical; settings: 10000 nM RPP
PP5CA = target: T3, PP5CA (Homo sapiens, UniProt P53041); experiment: as above; type: biochemical; settings: 10000 nM RPP
T3 sequence (P53041 1-499): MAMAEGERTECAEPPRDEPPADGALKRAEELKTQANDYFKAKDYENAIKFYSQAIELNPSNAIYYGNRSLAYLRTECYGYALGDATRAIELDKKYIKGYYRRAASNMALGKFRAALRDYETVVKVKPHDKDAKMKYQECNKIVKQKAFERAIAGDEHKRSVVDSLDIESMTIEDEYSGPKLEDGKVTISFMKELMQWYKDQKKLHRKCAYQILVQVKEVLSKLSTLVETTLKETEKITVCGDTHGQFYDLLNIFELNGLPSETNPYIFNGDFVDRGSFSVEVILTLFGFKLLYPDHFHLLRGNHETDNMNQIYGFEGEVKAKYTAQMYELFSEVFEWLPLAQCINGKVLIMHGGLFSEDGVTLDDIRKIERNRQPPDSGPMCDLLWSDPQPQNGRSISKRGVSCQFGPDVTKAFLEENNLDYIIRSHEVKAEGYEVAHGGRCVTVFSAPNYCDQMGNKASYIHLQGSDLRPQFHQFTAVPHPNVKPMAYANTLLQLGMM

L5 DRGs = experiment: qRT-PCR mRNA expression in ex vivo cultured L5 DRGs; type: cell-based, Sprague Dawley rat; settings: for Increase, BDNF mRNA / Increase, KV4.3 mRNA / Increase, KV7.2 mRNA / Increase, NGF mRNA / Increase, Nav1.8 mRNA / Increase, OPRM1 mRNA: DRG
Description: FIG. 15. […] Error bars =standard error of the mean.
L5 DRGs were dissected from adult male rats and plated in 12-well plates pre-coated with poly-D-Lysine (PDL) and laminin in a minimal volume of medium (250 ul Neurobasal™-A medium (GIBCO) supplemented with B27 (GIBCO), 50 ng/ml NGF (Sigma-Aldrich) and penicillin streptomycin) to allow attachment to the culture plate. One day after plating, DRGs were incubated with RPP (SEQ. ID NO: 12: 1 μM, 3 μM or 10 μM in culture medium, FIGS. 14 and 16; SEQ ID NOS: 13 and 14: 3 μM, FIG. 15) for 48 h. For RNA expression analysis, DRGs were lysed in 300 μl of Qiazol in a 1.5 ml tube containing Bullet Blender Pink Beads using a Bullet Blender Tissue Homogenizer (NextAdvance). Total RNA was extracted using RNeasy Midi Kit (Qiagen) according to manufacturer's instructions. Purified RNA was quantified with NanoDrop 2000 (ThermoFIsher), and reverse transcription was run using High Capacity cDNA Reverse Transcription Kit (Applied Biosystems) and 2 ng/ul RNA per reaction. For qRT-PCR, 5 ul of cDNA (corresponding to 10 ng of RNA) were mixed with to 10 ul SsoAdvanced™ Universal SYBR® Green Supermix (BioRad) and 1 ul of each primer (final primer concentration 500 nM each). Reactions were run in triplicates in a QuantStudio™ 7 Flex Real-Time PCR system (Applied Biosystems). Amplification data were analyzed using the comparative cycle threshold (ΔΔCt) method and β-actin as calibrator. Primers were as follows: β-actin: F-[…] (SEQ ID NO: 340), R-[…] (SEQ ID NO: 333); KV4.3: F-[…] (SEQ ID NO: 341), R-[…] (SEQ ID NO: 342); KV7.2 F-[…] AG (SEQ ID NO: 343), R-[…] (SEQ ID NO: 344); OPRM1: F-[…] (SEQ ID NO: 345), R-[…] (SEQ ID NO: 346).

[1] = various concentrations, 48 h, relative to water control
[2] = whole DRG ex vivo, 3 μM, 48 hours
[3] = whole DRG ex vivo, 10 μM, 48 hours

Chain of PPP1CA (P62136 whole entry, species assumed): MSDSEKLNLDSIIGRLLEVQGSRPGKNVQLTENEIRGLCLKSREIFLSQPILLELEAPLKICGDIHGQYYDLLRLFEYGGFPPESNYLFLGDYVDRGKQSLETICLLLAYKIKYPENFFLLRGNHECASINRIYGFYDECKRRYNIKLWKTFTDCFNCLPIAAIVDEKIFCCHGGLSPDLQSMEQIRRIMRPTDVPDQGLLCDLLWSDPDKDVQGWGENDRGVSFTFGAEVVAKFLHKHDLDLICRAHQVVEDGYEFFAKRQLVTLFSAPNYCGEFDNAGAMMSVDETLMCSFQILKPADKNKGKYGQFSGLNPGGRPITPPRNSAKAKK

Q: Which results are given for `CCCCCCCCCCCC[C@@H]1NC(=O)[C@@H](CCCNC(=N)N)NC(=O)[C@@H](CCCNC(=N)N)NC(=O)[C@@H](Cc2c[nH]c3ccccc23)NC(=O)[C@@H](Cc2c[nH]c3ccccc23)NC(=O)[C@@H](CCCNC(=N)N)NC(=O)[C@@H](CCC(=O)O)NC(=O)[C@@H](CC(=O)O)NC(=O)[C@@H](CC(C)C)NC(=O)[C@@H](CCC(=O)O)NC(=O)[C@H]2CCCN2C(=O)[C@H]2CCCN2C(=O)[C@@H](CCC(=O)O)NC(=O)[C@H]2CCCN2C(=O)[C@H]2CCCN2C(=O)[C@@H](CC(C)C)NC(=O)[C@H]2CCCN2C(=O)[C@@H](CCCCN)NC(=O)[C@@H](CCCNC(=N)N)NC(=O)[C@@H](CCCNC(=N)N)NC(=O)[C@@H](CCCNC(=N)N)NC(=O)[C@@H](CCCNC(=N)N)NC(=O)[C@@H](CCCNC(=N)N)NC1=O` [SEQ ID NO: 12] (cyclo([dR][dW][dW][dR][dR][Gly(Dodecyl)][dR][dR][dR][dR][dR][dK][dP][dL][dP][dP][dE][dP][dP][dE][dL][dD][dE]))?
A: % Activity (Average N = 5) (PPA1): 101.125%; % Activity (Average N = 5) (PPM1A): 102.786%; % Activity (Average N = 5) (PP3CA): 100.222%; % Activity (Average N = 5) (PPP1CA): 101.136%; % Activity (Average N = 5) (PP5CA): 97.902%; Increase, BDNF mRNA (L5 DRGs; 0.3 μM, 48 h): 1.4x; Increase, BDNF mRNA (L5 DRGs; 1 μM, 48 h): 1.3x; Increase, KV4.3 mRNA (L5 DRGs; 1 μM, 48 h): 0x; Increase, KV7.2 mRNA (L5 DRGs; 1 μM, 48 h): 0 x; Increase, NGF mRNA (L5 DRGs; 1 μM, 48 h): No affect was observed; Increase, Nav1.8 mRNA (L5 DRGs; 1 μM, 48 h): 0.8x; Increase, OPRM1 mRNA (L5 DRGs; 1 μM, 48 h): 1.2x; Increase, NGF mRNA (L5 DRGs; 1 μM, 48 h, listed as 12): 0.9x; Increase, BDNF mRNA (L5 DRGs; 3 μM, 48 h): 1.3x; Increase, KV4.3 mRNA (L5 DRGs; 3 μM, 48 h): 0x; Increase, KV7.2 mRNA (L5 DRGs; 3 μM, 48 h): 6.7x; Increase, NGF mRNA (L5 DRGs; 3 μM, 48 h): 1.25 x; Increase, Nav1.8 mRNA (L5 DRGs; 3 μM, 48 h): 2.6x; Increase, OPRM1 mRNA (L5 DRGs; 3 μM, 48 h): 3x; Increase, BDNF mRNA (L5 DRGs; 10 μM, 48 h): 1.7 x; Increase, KV4.3 mRNA (L5 DRGs; 10 μM, 48 h): 1.9x; Increase, KV7.2 mRNA (L5 DRGs; 10 μM, 48 h): 7.5x; Increase, NGF mRNA (L5 DRGs; 10 μM, 48 h): 1.9 x; Increase, Nav1.8 mRNA (L5 DRGs; 10 μM, 48 h): 4x; Increase, OPRM1 mRNA (L5 DRGs; 10 μM, 48 h): 3.9x; mRNA expression of BDNF and NGF (in words) (L5 DRGs; [1]): increases expression of BDNF and NGF; mRNA expression of KV4.3, KV7.2, Nav1.8 and OPRM1 (in words) (L5 DRGs; [1]): increases expression of KV4.3, KV7.2, Nav1.8 and OPRM1; increase of NGF (L5 DRGs; whole DRG ex vivo, 3 μM): approximately 50%; induction of KV4.3 compared to control (L5 DRGs; [2]): approximately 0 times; induction of Nav1.8 compared to control (L5 DRGs; [2]): 2.9 times and ~3 times; increase of BDNF expression (L5 DRGs; whole DRG ex vivo, 10 μM): ~75%; increase of NGF (L5 DRGs; whole DRG ex vivo, 10 μM): ~2 times; induction of KV7.2 compared to control (L5 DRGs; [3]): 9 times and ~7 times; induction of Nav1.8 compared to control (L5 DRGs; [3]): 4.8 times and ~5 times; increase of BDNF expression (L5 DRGs; whole DRG ex vivo, 0.3, 1, and 3 μM): approximately 25%
